According to patent US10004701B2, “Methods and compositions for treating infection” (UNIVERSITY OF ROCHESTER, priority 2012, dated 2018):
Counter-ions that a name gives are not always drawn. Like-named read-outs stand apart in the source and are kept apart here.

What was measured:
Assay in all cases: AK assay 384-well format, Prestwick library screening
[1] = system: E. coli; assay type: cell-based, Escherichia coli; details: 50 μM final drug concentration; for fold induction at 50 µM: Escherichia coli, 3 h
[2] = system: P. aeruginosa; assay type: cell-based, Pseudomonas aeruginosa; details: 50 μM final drug concentration; for fold induction at 50 µM: Pseudomonas aeruginosa, 3 h
[3] = system: E. faecium; assay type: cell-based, Enterococcus faecium; details: 50 μM final drug concentration; for fold induction at 50 µM: Enterococcus faecium, 3 h
[4] = system: E. cloacae; assay type: cell-based, Enterobacter cloacae; details: 50 μM final drug concentration; for fold induction at 50 µM: Enterobacter cloacae, 3 h
[5] = system: S. aureus strain USA300-0114; assay type: cell-based, Staphylococcus aureus; details: 50 μM final drug concentration; for fold induction at 50 µM: Staphylococcus aureus, USA300, 3 h
[6] = system: A. baumannii strain 98-37-09; assay type: cell-based, Acinetobacter baumannii; details: 50 μM final drug concentration; for fold induction at 50 µM: Acinetobacter baumannii, 983709, 3 h
[7] = system: K. pneumoniae; assay type: cell-based, Klebsiella pneumoniae; details: 50 μM final drug concentration; for fold induction at 50 µM: Klebsiella pneumoniae, 3 h
[8] = planktonic E. coli, 384-well, cutoff for positive-scoring molecules 3-fold increase, read-out: AK-based Prestwick Library Screening Results: E. coli (increase in extracellular AK activity)
[9] = planktonic P. aeruginosa, 384-well, cutoff for positive-scoring molecules 3-fold increase, read-out: AK-based Prestwick Library Screening Results: P. aeruginosa (increase in extracellular AK activity)
[10] = planktonic E. faecium, 384-well, cutoff for positive-scoring molecules 3-fold increase, read-out: AK-based Prestwick Library Screening Results: E. faecium (increase in extracellular AK activity)
[11] = planktonic E. cloacae, 384-well, cutoff for positive-scoring molecules 3-fold increase, read-out: AK-based Prestwick Library Screening Results: E. cloacae (increase in extracellular AK activity)
[12] = planktonic S. aureus, 384-well, cutoff for positive-scoring molecules 3-fold increase, read-out: AK-based Prestwick Library Screening Results: S. aureus (increase in extracellular AK activity)
[13] = planktonic A. baumannii, 384-well, cutoff for positive-scoring molecules 3-fold increase, read-out: AK-based Prestwick Library Screening Results: A. baumannii (increase in extracellular AK activity)
[14] = planktonic K. pneumoniae, 384-well, cutoff for positive-scoring molecules 3-fold increase, read-out: AK-based Prestwick Library Screening Results: K. pneumoniae (increase in extracellular AK activity)

Molecule: Nc1c2c(nc3ccccc13)CCCC2O.O=C(O)/C=C\C(=O)O (racemic) [Hydroxytacrine maleate (R,S)]
- AK-based Prestwick Library Screening Results, E. coli (increase in extracellular AK activity) ([1]; planktonic E. coli, […]): 1.3
- AK-based Prestwick Library Screening Results, P. aeruginosa (increase in extracellular AK activity) ([2]; planktonic P. aeruginosa, cutoff for positive-scoring molecules 3-fold increase): 1.0
- AK-based Prestwick Library Screening Results, E. faecium (increase in extracellular AK activity) ([3]; planktonic E. faecium, cutoff for positive-scoring molecules 3-fold increase): 1.0
- AK-based Prestwick Library Screening Results, E. cloacae (increase in extracellular AK activity) ([4]; planktonic E. cloacae, cutoff for positive-scoring molecules 3-fold increase): 1.3
- AK-based Prestwick Library Screening Results, S. aureus (increase in extracellular AK activity) ([5]; planktonic S. aureus, cutoff for positive-scoring molecules 3-fold increase): 3.0
- AK-based Prestwick Library Screening Results, A. baumannii (increase in extracellular AK activity) ([6]; planktonic A. baumannii, cutoff for positive-scoring molecules 3-fold increase): 1.0
- AK-based Prestwick Library Screening Results, K. pneumoniae (increase in extracellular AK activity) ([7]; planktonic K. pneumoniae, cutoff for positive-scoring molecules 3-fold increase): 1.0

Molecule: CC[C@H](C)[C@H]1O[C@]2(CC[C@@H]1C)C[C@@H]1C[C@@H](C/C=C(\C)[C@@H](O[C@H]3C[C@H](OC)[C@@H](O[C@H]4C[C@H](OC)[C@@H](O)[C@H](C)O4)[C@H](C)O3)[C@@H](C)/C=C/C=C3\CO[C@@H]4[C@H](O)C(C)=C[C@@H](C(=O)O1)[C@]34O)O2 [Ivermectin]
- AK-based Prestwick Library Screening Results: E. coli (increase in extracellular AK activity) ([1]; planktonic E. coli, 384-well, […]): 1.3
- AK-based Prestwick Library Screening Results: P. aeruginosa (increase in extracellular AK activity) ([2]; planktonic P. aeruginosa, 384-well, […]): 1.0
- AK-based Prestwick Library Screening Results: E. faecium (increase in extracellular AK activity) ([3]; planktonic E. faecium, 384-well, […]): 1.2
- AK-based Prestwick Library Screening Results: E. cloacae (increase in extracellular AK activity) ([4]; planktonic E. cloacae, 384-well, […]): 1.6
- AK-based Prestwick Library Screening Results: S. aureus (increase in extracellular AK activity) ([5]; planktonic S. aureus, 384-well, […]): 2.1
- AK-based Prestwick Library Screening Results: A. baumannii (increase in extracellular AK activity) ([6]; planktonic A. baumannii, 384-well, […]): 1.5
- AK-based Prestwick Library Screening Results: K. pneumoniae (increase in extracellular AK activity) ([7]; planktonic K. pneumoniae, 384-well, […]): 1.0

Molecule: CC(COc1ccccc1)N(CCCl)Cc1ccccc1 (stereo not drawn) [Phenoxybenzamine hydrochloride]
- fold induction at 50 µM ([1]; […], read-out: AK-based Prestwick Library Screening Results, E. coli (fold increase in extracellular AK activity)): 1.4
- fold induction at 50 µM ([2]; […], read-out: AK-based Prestwick Library Screening Results, P. aeruginosa (fold increase in extracellular AK activity)): 1.1
- fold induction at 50 µM ([3]; […], read-out: AK-based Prestwick Library Screening Results, E. faecium (fold increase in extracellular AK activity)): 0.9
- fold induction at 50 µM ([4]; […], read-out: AK-based Prestwick Library Screening Results, E. cloacae (fold increase in extracellular AK activity)): 1.4
- fold induction at 50 µM ([5]; […], read-out: AK-based Prestwick Library Screening Results, S. aureus (fold increase in extracellular AK activity)): 1.1
- fold induction at 50 µM ([6]; […], read-out: AK-based Prestwick Library Screening Results, A. baumannii (fold increase in extracellular AK activity)): 1.3
- fold induction at 50 µM ([7]; […], read-out: AK-based Prestwick Library Screening Results, K. pneumoniae (fold increase in extracellular AK activity)): 1.2

Molecule: CN(C)CCCOc1nn(Cc2ccccc2)c2ccccc12 [Benzydamine hydrochloride]
- fold induction at 50 µM [1, 8]: 1.3
- fold induction at 50 µM [2, 9]: 1.2
- fold induction at 50 µM [3, 10]: 1.1
- fold induction at 50 µM [4, 11]: 1.2
- fold induction at 50 µM [5, 12]: 1.1
- fold induction at 50 µM [6, 13]: 1
- fold induction at 50 µM [7, 14]: 1

Molecule: C#C[C@]1(O)CC[C@H]2[C@@H]3CCC4=CC(=O)CC[C@@H]4[C@H]3CC[C@@]21C [Norethindrone]
- fold induction at 50 µM ([1]; 384-well format, cutoff for positive-scoring molecules 3-fold increase, read-out: AK-based Prestwick Library Screening Results, E. coli (increase in extracellular AK activity)): 0.7
- fold induction at 50 µM ([2]; 384-well format, cutoff for positive-scoring molecules 3-fold increase, read-out: AK-based Prestwick Library Screening Results, P. aeruginosa (increase in extracellular AK activity)): 0.8
- fold induction at 50 µM ([3]; 384-well format, cutoff for positive-scoring molecules 3-fold increase, read-out: AK-based Prestwick Library Screening Results, E. faecium (increase in extracellular AK activity)): 1
- fold induction at 50 µM ([4]; 384-well format, cutoff for positive-scoring molecules 3-fold increase, read-out: AK-based Prestwick Library Screening Results, E. cloacae (increase in extracellular AK activity)): 0.9
- fold induction at 50 µM ([5]; 384-well format, cutoff for positive-scoring molecules 3-fold increase, read-out: AK-based Prestwick Library Screening Results, S. aureus (increase in extracellular AK activity)): 0.8
- fold induction at 50 µM ([6]; 384-well format, cutoff for positive-scoring molecules 3-fold increase, read-out: AK-based Prestwick Library Screening Results, A. baumannii (increase in extracellular AK activity)): 0.7
- fold induction at 50 µM ([7]; 384-well format, cutoff for positive-scoring molecules 3-fold increase, read-out: AK-based Prestwick Library Screening Results, K. pneumoniae (increase in extracellular AK activity)): 0.7

Molecule: CNNCc1ccc(C(=O)NC(C)C)cc1 [Procarbazine hydrochloride]
- fold induction at 50 µM ([1]; planktonic E. coli, positive cutoff 3-fold increase, read-out: AK-based Prestwick library screening result, E. coli (fold increase in extracellular AK activity)): 1
- fold induction at 50 µM ([2]; planktonic P. aeruginosa, positive cutoff 3-fold increase, read-out: AK-based Prestwick library screening result, P. aeruginosa (fold increase in extracellular AK activity)): 0.9
- fold induction at 50 µM ([3]; planktonic E. faecium, positive cutoff 3-fold increase, read-out: AK-based Prestwick library screening result, E. faecium (fold increase in extracellular AK activity)): 1
- fold induction at 50 µM ([4]; planktonic E. cloacae, positive cutoff 3-fold increase, read-out: AK-based Prestwick library screening result, E. cloacae (fold increase in extracellular AK activity)): 1.7
- fold induction at 50 µM ([5]; planktonic S. aureus, positive cutoff 3-fold increase, read-out: AK-based Prestwick library screening result, S. aureus (fold increase in extracellular AK activity)): 1.1
- fold induction at 50 µM ([6]; planktonic A. baumannii, positive cutoff 3-fold increase, read-out: AK-based Prestwick library screening result, A. baumannii (fold increase in extracellular AK activity)): 1.1
- fold induction at 50 µM ([7]; planktonic K. pneumoniae, positive cutoff 3-fold increase, read-out: AK-based Prestwick library screening result, K. pneumoniae (fold increase in extracellular AK activity)): 1.1

Molecule: Nc1ccc(/N=N/c2ccccc2)c(N)n1 [Phenazopyridine hydrochloride]
- fold induction at 50 µM ([1]; planktonic, cutoff for positive-scoring molecules 3-fold increase, read-out: AK-based Prestwick Library Screening Results, E. coli (fold increase in extracellular AK activity)): 0.1
- fold induction at 50 µM ([2]; planktonic, cutoff for positive-scoring molecules 3-fold increase, read-out: AK-based Prestwick Library Screening Results, P. aeruginosa (fold increase in extracellular AK activity)): 0.1
- fold induction at 50 µM ([3]; planktonic, cutoff for positive-scoring molecules 3-fold increase, read-out: AK-based Prestwick Library Screening Results, E. faecium (fold increase in extracellular AK activity)): 0.1
- fold induction at 50 µM ([4]; planktonic, cutoff for positive-scoring molecules 3-fold increase, read-out: AK-based Prestwick Library Screening Results, E. cloacae (fold increase in extracellular AK activity)): 1.4
- fold induction at 50 µM ([5]; planktonic, cutoff for positive-scoring molecules 3-fold increase, read-out: AK-based Prestwick Library Screening Results, S. aureus (fold increase in extracellular AK activity)): 0.3
- fold induction at 50 µM ([6]; planktonic, cutoff for positive-scoring molecules 3-fold increase, read-out: AK-based Prestwick Library Screening Results, A. baumannii (fold increase in extracellular AK activity)): 0.1
- fold induction at 50 µM ([7]; planktonic, cutoff for positive-scoring molecules 3-fold increase, read-out: AK-based Prestwick Library Screening Results, K. pneumoniae (fold increase in extracellular AK activity)): 0.1

Molecule: CCN1CCN(C(=O)N[C@@H](C(=O)N[C@@H]2C(=O)N3C(C(=O)O)=C(CSc4nnnn4C)CS[C@H]23)c2ccc(O)cc2)C(=O)C1=O [Cefoperazone dihydrate]
- fold induction at 50 µM [1, 8]: 16.5
- fold induction at 50 µM [2, 9]: 5.2
- fold induction at 50 µM [3, 10]: 0.9
- fold induction at 50 µM [4, 11]: 12
- fold induction at 50 µM [5, 12]: 0.7
- fold induction at 50 µM [6, 13]: 0.7
- fold induction at 50 µM [7, 14]: 2.1

Molecule: Pizotifen malate
- AK-based Prestwick library screening result, E. coli (fold increase in extracellular AK activity) ([1]; planktonic E. coli, positive cutoff 3-fold increase): 1.0
- AK-based Prestwick library screening result, P. aeruginosa (fold increase in extracellular AK activity) ([2]; planktonic P. aeruginosa, positive cutoff 3-fold increase): 0.8
- AK-based Prestwick library screening result, E. faecium (fold increase in extracellular AK activity) ([3]; planktonic E. faecium, positive cutoff 3-fold increase): 1.0
- AK-based Prestwick library screening result, E. cloacae (fold increase in extracellular AK activity) ([4]; planktonic E. cloacae, positive cutoff 3-fold increase): 1.3
- AK-based Prestwick library screening result, S. aureus (fold increase in extracellular AK activity) ([5]; planktonic S. aureus, positive cutoff 3-fold increase): 0.7
- AK-based Prestwick library screening result, A. baumannii (fold increase in extracellular AK activity) ([6]; planktonic A. baumannii, positive cutoff 3-fold increase): 0.8
- AK-based Prestwick library screening result, K. pneumoniae (fold increase in extracellular AK activity) ([7]; planktonic K. pneumoniae, positive cutoff 3-fold increase): 0.7
